This note sets out measurements from ChEMBL document CHEMBL1150853, “A new dehydrogeranylgeraniol antioxidant from Saururus cernuus that inhibits intracellular reactive oxygen species (ROS)-catalyzed oxidation within HL-60 cells” (J Nat Prod, 2001).

Calls of active or inactive are those of the source. No cut-off for these calls is given here.

The subject of series [1] is Colletotrichum gloeosporioides. The experiment in a line: Antifungal activity against Colletotrichum gloeosporioides at 100 nmol by 2D-TLC bioautography assay. The format is functional, organism-based.
The subject of series [2] is Colletotrichum acutatum. The experiment in a line: Antifungal activity against Colletotrichum acutatum at 100 nmol by 2D-TLC bioautography assay. The format is functional, organism-based.
For series [3], the system named is HL-60. The experiment in a line: Cytotoxicity against human HL60 cells at 5 ug/mL after 4 hrs by XTT assay. The class given is cell-based. The note with it: hl-60, 4 h.
Series [4] relates to HL-60. Description: Antioxidant activity in human HL60 cells assessed as inhibition of endogenous hydrogen peroxide-catalyzed oxidation of 2',7'-dichlorodihydrofluorescein diacetate at 5 ug/mL by flow cytometry. The format is functional.
In series [5] the test system is HL-60. Description: Antioxidant activity in phorbol 12-myristate 13-acetate-stimulated human HL60 cells assessed as inhibition of exogenous hydrogen peroxide-catalyzed oxidation of 2',7'-dichlorodihydrofluorescein diacetate at 5 ug/mL pretreated 30 mins before PMA challenge by flow cytometry. The class given is functional.
The subject of series [6] is Radical scavenging activity. Description: Antioxidant activity assessed as DPPH radical scavenging activity after 30 mins by modified 2D TLC autographic assay. The class given is functional.
In series [7] the test system is Colletotrichum fragariae. The experiment in a line: Antifungal activity against Colletotrichum fragariae at 100 nmol by 2D-TLC bioautography assay. The format is functional, organism-based.
In series [8] the test system is HL-60. The experiment in a line: Antioxidant activity in phorbol 12-myristate 13-acetate-stimulated human HL60 cells assessed as inhibition of exogenous hydrogen peroxide-catalyzed oxidation of 2',7'-dichlorodihydrofluorescein diacetate at 50 ug/mL pretreated 30 mins before PMA challenge by flow cytometry. The class given is functional, cell-based.
The subject of series [9] is HL-60. The experiment in a line: Antioxidant activity in human HL60 cells assessed as inhibition of endogenous hydrogen peroxide-catalyzed oxidation of 2',7'-dichlorodihydrofluorescein diacetate at 50 ug/mL by flow cytometry. The format is functional, cell-based.

Regarding `CC(C)=C/C=C/C(C)=C/CC/C(C)=C/CC/C(C)=C/CO`, the outcome in [1], in series [2], in series [6] and in series [7] was Active. Besides, the Activity entry in series [3] is recorded as “Non-toxic”. Also, the inhibition (as a rule, how much of the control response was suppressed) at 5 µg/mL was 8% in [4] and 28% in series [5].

On to VITAMIN E, for which the inhibition in series [8] is 32.4%. Besides, the inhibition entry in [9] was “inactive”.
